Source: patent US20150284430A1, “APPLICATION OF SP PEPTIDE OR DERIVATIVE THEREOF IN PREPARING MEDICINES FOR PREVENTING OR TREATING ASTHMA” (priority 2012, published 2015)

System: allergic asthma mouse model induced by a combination of ovalbumin and adjuvant
Test: Lung tissue histopathologic examination and lesion score, ovalbumin/aluminium hydroxide allergic asthma mouse model
Type: in vivo
Conditions: positive medicines group, dexamethasone 0.9 μg/kg·d i.p. every other day x15 from week 15
Method: Preparation of sensitized liquid: prepare in a proportion of dissolving 10 ug ovalbumin and 2 mg aluminium hydroxide in 0.5 ml physiological saline, and use it right after being prepared.
On day 1, day 7 and day 14, the mice of all groups (the model group, the preventive administration groups, the treatment administration groups, and the positive medicines group) apart from the blank control group are injected intraperitoneally with 0.5 ml freshly prepared sensitized liquid. The blank control group is injected intraperitoneally with an equal volume of physiological saline.
Since day 21 (i.e., starting from week 4), the mice of all groups apart from the blank control group are placed in a 16 L closed container every fourth days, make the mice inhale 1 wt % ovalbumin physiological saline by ultrasonic nebulization, with an inhalation duration of 25 min/d and a nebulization flow rate of 3 ml/min, for twice a week to induce asthma, and the process continues until week 19. […]
Lung tissue lesions (including bronchia and perivascular interstitial edema, alveolar wall congestion or emphysema) are marked respectively as 1, 2, 3 and 4 in ascending order of severity, 0 stands for no obvious lesions, and 0.5 for extreme mild lesions. All scores are accumulated, and a mean score (±SD) of each mouse in each group is calculated, and a higher score indicates a more severe level of lesions. […]

Q: For `C[C@@H]1C[C@H]2[C@@H]3CCC4=CC(=O)C=C[C@]4(C)[C@@]3(F)[C@@H](O)C[C@]2(C)[C@@]1(O)C(=O)CO` [positive drug, dexamethasone], which “inflammatory cells infiltration (histopathology, FIG. 6)” value is on record?
A: infiltration with a few inflammatory cells

Q: And the “pulmonary interstitial edema (histopathology, FIG. 6)” value?
A: mild pulmonary interstitial edema
